The values that follow come from ChEMBL document CHEMBL5260833, “An overview of quinazolines: Pharmacological significance and recent developments” (Eur J Med Chem, 2018).

The test system of one assay is Tobacco mosaic virus. Kind of assay: Antiviral activity against TMV at 500 microg/ml. Type of assay: functional. The settings on record: dose 500 µg/ml.
Regarding `O=c1c2ccccc2nc(-c2ccncc2)n1/C=C/c1ccc(F)cc1`, the Activity is 54%.
Regarding `Cc1nc2ccc(Br)cc2c(=O)n1/C=C/c1cccc(F)c1`, the Activity was 54%.
With `O=c1c2ccccc2nc(-c2ccccc2)n1/C=C/c1cccc(Cl)c1Cl`, the Activity is 54%.
In turn, `Cc1nc2ccc(Br)cc2c(=O)n1/C=C/c1ccc(Cl)c([N+](=O)[O-])c1` gave an Activity of 54%.
Same read-out and setting: under `Cc1nc2ccc(Br)cc2c(=O)n1/C=C/c1cccc([N+](=O)[O-])c1` stands 54%; under `COc1ccc(/C=C/n2c(C)nc3ccc(Br)cc3c2=O)cc1OC`, 54%.
Still for that read-out and setting: then `O=c1c2ccccc2nc(-c2ccccc2)n1/C=C/c1cc(Cl)cc(Cl)c1`, with 54%; and `Cc1nc2ccc(Br)cc2c(=O)n1/C=C/c1ccc(F)c(F)c1`, with 54%.
In the case of `O=c1c2ccccc2nc(-c2ccccc2)n1/C=C/c1ccc(F)c(F)c1`, the Activity was 54%.
As for `Cc1nc2ccc(Br)cc2c(=O)n1/C=C/c1ccccc1F`, the Activity is given as 54%.
In turn, `Cc1nc2ccc(Br)cc2c(=O)n1/C=C/c1cc([N+](=O)[O-])ccc1Cl` came in with an Activity of 54%.
Regarding `Cc1nc2ccc(Br)cc2c(=O)n1/C=C/c1cc(O)cc(Cl)c1`, the Activity turned out to be 54%.
`Cc1nc2ccc(Br)cc2c(=O)n1/C=C/c1ccc(Cl)cc1Cl` came in with an Activity of 54%.
The same measure, in the same setting: then `O=c1c2ccccc2nc(-c2ccccc2)n1/C=C/c1ccc(Cl)c([N+](=O)[O-])c1`, with 54%.
For the compound `O=c1c2ccccc2nc(-c2ccccc2)n1/C=C/c1c(Cl)cccc1Cl`, the Activity worked out at 54%.

The next assay has as its system Rattus norvegicus. The experiment in a line: Antiinflammatory activity in carrageenan induced rat at assessed as reduction in paw edema 50 mg/kg, po relative to control. The format is functional. Also noted: scale not given: the % may be the effect or the level left.
Details: not given
As for `NNCc1nc2ccc(Br)cc2c(=O)n1-c1ccccc1`, the Activity is listed as 10.28%.
Same read-out and setting: under `CC(C)c1ccc(/C=C/C(=O)NN2C(=O)CC2c2nc3ccc(Br)cc3c(=O)n2-c2ccccc2)cc1` (configuration not stated) stands 10.28%; under `NNCc1nc2ccc(Br)cc2c(=O)n1-c1cccc(Cl)c1`, 10.28%; under `COc1cc(/C=C/C(=O)NN2C(=O)CC2c2nc3ccc(Br)cc3c(=O)n2-c2ccccc2)ccc1O` (configuration not stated), 10.28%.
Turning to `CC(C)c1ccc(/C=C/C(=O)NNCc2nc3ccc(Br)cc3c(=O)n2-c2cccc(Cl)c2)cc1`, the Activity was 10.28%.
Same read-out and setting: then `COc1ccc(/C=C/C(=O)NN2C(=O)CC2c2nc3ccc(Br)cc3c(=O)n2-c2ccccc2)cc1` (configuration not stated), with 10.28%; and `O=c1c2cc(Br)ccc2nc(CBr)n1-c1ccccc1`, with 10.28%; and `COc1ccccc1-n1c(CBr)nc2ccccc2c1=O`, with 10.28%.
On the same count and under the same terms, under `COc1ccc(/C=C/C(=O)NNCc2nc3ccc(Br)cc3c(=O)n2-c2ccccc2)cc1` stands 10.28%; under `COc1ccccc1-n1c(CNNC(=O)/C=C/c2ccc(C(C)C)cc2)nc2ccccc2c1=O`, 10.28%; under `COc1ccccc1-n1c(C2CC(=O)N2NC(=O)/C=C/c2ccc(C(C)C)cc2)nc2ccccc2c1=O` (configuration not stated), 10.28%.
Still for that read-out and setting: under `O=C(/C=C/c1ccccc1)NNCc1nc2ccc(Br)cc2c(=O)n1-c1ccccc1` stands 10.28%.
As for `COc1ccccc1-n1c(CNN)nc2ccccc2c1=O`, the Activity is 10.28%.
Regarding `CC(=O)NNCc1nc2ccc(Br)cc2c(=O)n1-c1ccccc1`, the Activity is reported as 10.28%.
On the same count and under the same terms, under `COc1cc(/C=C/C(=O)NNCc2nc3ccc(Br)cc3c(=O)n2-c2cccc(Cl)c2)ccc1O` stands 10.28%.
On to `CN(C)c1ccc(/C=C/C(=O)NNCc2nc3ccccc3c(=O)n2-c2ccccc2Cl)cc1`, for which the Activity turned out to be 10.28%.
The same measure, in the same setting: then `COc1cc(/C=C/C(=O)NNCc2nc3ccc(Br)cc3c(=O)n2-c2ccccc2)ccc1O`, with 10.28%; and `COc1cc(/C=C/C(=O)NNCc2nc3ccccc3c(=O)n2-c2ccccc2Cl)ccc1O`, with 10.28%; and `NNCc1nc2ccccc2c(=O)n1-c1ccccc1Cl`, with 10.28%.
In the case of `COc1ccc(/C=C/C(=O)NN2C(=O)CC2c2nc3ccc(Br)cc3c(=O)n2-c2cccc(Cl)c2)cc1` (configuration not stated), the Activity is 10.28%.
Still for that read-out and setting: then `CC(C)c1ccc(/C=C/C(=O)NN2C(=O)CC2c2nc3ccccc3c(=O)n2-c2ccccc2Cl)cc1` (configuration not stated), with 10.28%; and `O=C(/C=C/c1ccccc1)NNCc1nc2ccc(Br)cc2c(=O)n1-c1cccc(Cl)c1`, with 10.28%; and `COc1ccc(/C=C/C(=O)NN2C(=O)CC2c2nc3ccccc3c(=O)n2-c2ccccc2Cl)cc1` (configuration not stated), with 10.28%.
For `CC(=O)NNCc1nc2ccccc2c(=O)n1-c1ccccc1Cl`, the Activity was determined as 10.28%.
Turning to `O=C(/C=C/c1ccccc1)NNCc1nc2ccccc2c(=O)n1-c1ccccc1Cl`, the Activity amounted to 10.28%.
In the case of `COc1ccc(/C=C/C(=O)NNCc2nc3ccc(Br)cc3c(=O)n2-c2cccc(Cl)c2)cc1`, the Activity is 10.28%.
Same read-out and setting: then `COc1cc(/C=C/C(=O)NNCc2nc3ccccc3c(=O)n2-c2ccccc2OC)ccc1O`, with 10.28%.
On the same count and under the same terms, then `O=C(/C=C/c1ccccc1)NN1C(=O)CC1c1nc2ccc(Br)cc2c(=O)n1-c1cccc(Cl)c1` (configuration not stated), with 10.28%; and `COc1ccc(/C=C/C(=O)NNCc2nc3ccccc3c(=O)n2-c2ccccc2Cl)cc1`, with 10.28%; and `O=c1c2cc(Br)ccc2nc(CBr)n1-c1cccc(Cl)c1`, with 10.28%.
Same read-out and setting: then `COc1ccccc1-n1c(CNNC(C)=O)nc2ccccc2c1=O`, with 10.28%.
For `O=c1c2ccccc2nc(CBr)n1-c1ccccc1Cl`, the Activity is on record as 10.28%.
Take `CC(C)c1ccc(/C=C/C(=O)NNCc2nc3ccc(Br)cc3c(=O)n2-c2ccccc2)cc1`: the Activity stood at 10.28%.
Regarding `O=C(/C=C/c1ccccc1)NN1C(=O)CC1c1nc2ccc(Br)cc2c(=O)n1-c1ccccc1` (configuration not stated), the Activity is on record as 10.28%.
Take `COc1cc(/C=C/C(=O)NN2C(=O)CC2c2nc3ccccc3c(=O)n2-c2ccccc2OC)ccc1O` (configuration not stated): the Activity worked out at 10.28%.
On to `CC(=O)NNCc1nc2ccc(Br)cc2c(=O)n1-c1cccc(Cl)c1`, for which the Activity is recorded as 10.28%.
In the case of `O=C(/C=C/c1ccccc1)NN1C(=O)CC1c1nc2ccccc2c(=O)n1-c1ccccc1Cl` (configuration not stated), the Activity is 10.28%.
Still for that read-out and setting: under `CC(C)c1ccc(/C=C/C(=O)NN2C(=O)CC2c2nc3ccc(Br)cc3c(=O)n2-c2cccc(Cl)c2)cc1` (configuration not stated) stands 10.28%.
Still for that read-out and setting: then `COc1cc(/C=C/C(=O)NN2C(=O)CC2c2nc3ccccc3c(=O)n2-c2ccccc2Cl)ccc1O` (configuration not stated), with 10.28%.
On the same count and under the same terms, then `COc1cc(/C=C/C(=O)NN2C(=O)CC2c2nc3ccc(Br)cc3c(=O)n2-c2cccc(Cl)c2)ccc1O` (configuration not stated), with 10.28%.

The next assay relates to Rattus norvegicus. The experiment in a line: Anticonvulsant activity in ip dosed albino rat measured after 1 hrs. Type of assay: functional.
Details: not given
Consider `COc1ccc(C2CC(Nn3c(C)nc4ccc(Br)cc4c3=O)=NN2C(C)=O)cc1` (configuration not stated), for which the Activity turned out to be 50%.
Turning to `COc1cc(/C=C/C(=O)Nn2c(C)nc3ccc(Br)cc3c2=O)ccc1O`, the Activity is 50%.
Turning to `CC(=O)N1N=C(Nn2c(C)nc3ccc(Br)cc3c2=O)CC1c1ccc(O)cc1` (configuration not stated), the Activity came to 50%.
On the same count and under the same terms, then `CC(=O)N1N=C(Nn2c(C)nc3ccccc3c2=O)CC1c1ccc(N(C)C)cc1` (configuration not stated), with 50%; and `COc1ccc(C2CC(Nn3c(C)nc4ccccc4c3=O)=NN2C(C)=O)cc1` (configuration not stated), with 50%; and `Cc1nc2ccccc2c(=O)n1NC(=O)/C=C/c1ccccc1`, with 50%.
On the same count and under the same terms, under `COc1cc(C2CC(Nn3c(C)nc4ccccc4c3=O)=NN2C(C)=O)ccc1O` (configuration not stated) stands 50%; under `COc1ccc(C2CC(Nn3c(C)nc4ccccc4c3=O)=NO2)cc1` (configuration not stated), 50%.
Consider `CC(=O)Nn1c(C)nc2ccc(Br)cc2c1=O`, for which the Activity is 50%.
Consider `CC(=O)N1N=C(Nn2c(C)nc3ccc(Br)cc3c2=O)CC1c1ccc(N(C)C)cc1` (configuration not stated), for which the Activity turned out to be 50%.
For the compound `Cc1nc2ccccc2c(=O)n1NC1=NOC(c2ccccc2)C1` (configuration not stated), the Activity was 50%.
`COc1cc(C2CC(Nn3c(C)nc4ccccc4c3=O)=NO2)ccc1O` (configuration not stated) registered an Activity of 50%.
The same measure, in the same setting: under `COc1cc(C2CC(Nn3c(C)nc4ccc(Br)cc4c3=O)=NN2C(C)=O)ccc1O` (configuration not stated) stands 50%; under `Cc1nc2ccc(Br)cc2c(=O)n1NC1=NOC(c2ccccc2)C1` (configuration not stated), 50%; under `COc1ccc(C2CC(Nn3c(C)nc4ccc(Br)cc4c3=O)=NO2)cc1` (configuration not stated), 50%.
The compound `COc1cc(/C=C/C(=O)Nn2c(C)nc3ccccc3c2=O)ccc1O` gave an Activity of 50%.
Same read-out and setting: then `CC(=O)N1N=C(Nn2c(C)nc3ccc(Br)cc3c2=O)CC1c1ccccc1` (configuration not stated), with 50%.
On to `Cc1nc2ccccc2c(=O)n1NC1=NOC(c2ccc(O)cc2)C1` (configuration not stated), for which the Activity was 50%.
`Cc1nc2ccc(Br)cc2c(=O)n1NC1=NOC(c2ccc(O)cc2)C1` (configuration not stated) returned an Activity of 50%.
The compound `Cc1nc2ccccc2c(=O)n1NC(=O)/C=C/c1ccc(N(C)C)cc1` yielded an Activity of 50%.
Same read-out and setting: then `CC(=O)N1N=C(Nn2c(C)nc3ccccc3c2=O)CC1c1ccccc1` (configuration not stated), with 50%; and `COc1cc(C2CC(Nn3c(C)nc4ccc(Br)cc4c3=O)=NO2)ccc1O` (configuration not stated), with 50%; and `Cc1nc2ccc(Br)cc2c(=O)n1NC1=NOC(c2ccc(N(C)C)cc2)C1` (configuration not stated), with 50%.
With `Cc1nc2ccc(Br)cc2c(=O)n1NC(=O)/C=C/c1ccc(O)cc1`, the Activity is 50%.
Same read-out and setting: then `Cc1nc2ccc(Br)cc2c(=O)n1NC(=O)/C=C/c1ccc(N(C)C)cc1`, with 50%; and `COc1ccc(/C=C/C(=O)Nn2c(C)nc3ccc(Br)cc3c2=O)cc1`, with 50%.
Same read-out and setting: under `Cc1nc2ccccc2c(=O)n1NC(=O)/C=C/c1ccc(O)cc1` stands 50%; under `Cc1nc2ccc(Br)cc2c(=O)n1NC(=O)/C=C/c1ccccc1`, 50%; under `CC(=O)N1N=C(Nn2c(C)nc3ccccc3c2=O)CC1c1ccc(O)cc1` (configuration not stated), 50%.
Turning to `CC(=O)Nn1c(C)nc2ccccc2c1=O`, the Activity is on record as 50%.
`Cc1nc2ccccc2c(=O)n1NC1=NOC(c2ccc(N(C)C)cc2)C1` (configuration not stated) returned an Activity of 50%.
Same read-out and setting: then `COc1ccc(/C=C/C(=O)Nn2c(C)nc3ccccc3c2=O)cc1`, with 50%.
